Results from patent US6353089B1, “Method for stimulating CTLs with peptides” (Ludwig Institute for Cancer Research, priority 1994, dated 2002).
One block for each sequence: values may come before it.

Legend:
[1] = tested on: T2 cells; test: chromium release assay with CTL 4.2, T2 target cells; format: cell-based; conditions: for % 51CR Release: T2 + peptide
Experimental: The CTL clone was obtained using T2 cells, in accordance with Houbiers et al., Eur. J. Immunol. 23: 2072 (1993), previously incorporated by reference in its entirety.
Once the CTL clone was isolated, it was used in a chromium release assay in accordance with Boon, et al., J. Exp. Med. 152: 1184 (1980) the disclosure of which is incorporated by reference in its entirety. In addition to T2, cell line SK23, which is an HLA-A2 presenting line, was tested. The results are presented below:
Effector Cell (E): CTL 4.2 Target (T): HLA-A2 cell plus SEQ ID NO: 4

[2] = molecular target: T1, HLA-A2 molecules (Homo sapiens, UniProt P04439, D140Y/D185E/D98H/E176V/E277Q/G131W/G231S/I119V/I121R/I166T/I218V/L300P/L318F/N151K/N90K/P208A/P217A/Q86G/Q94H/R138H/R169H/T345S); test: HLA-A2 binding (stabilization) assay on T2 cells, mean fluorescence ratio; conditions: peptide 0.1 mM
T1 construct: endogenous in cells; host or cells: 174 CEM.T2 (T2) cells
Description: To determine whether or not peptides bound to HLA-A2 molecules, cell line 174 CEM.T2 (hereafter “T2”) was used. This cell line is described by Cerundolo et al., Nature 345: 449-452 (1990), and Spies et al., Nature 348: 744-747 (1990), the disclosures of which are incorporated by reference. This is a cell line deficient in the pathway which supplies peptides to the endoplasmic reticulum, the site of assembly of MHC class I heterodimers. It can assemble MHC class-I molecules, but these are unstable, and, on cell lysis, dissociate into free heavy and light chains during overnight incubation. The heterodimers can, however, be stabilized in vitro via addition of appropriate peptide ligands, as per Townsend et al., Nature 340: 443-448 (1989); Townsend et al., Cell 62: […] (1990); Cerundolo et al., supra; Schumacher et al., Nature 350: 703-706 (1991); Elliot et al., Nature 351: 402-406 (1991); Elvin et al., Eur. J. Immunol. 21 : 2025-2031 (1991). The thus stabilized molecules can be immunoprecipitated with antibodies specific for the MHC class-I molecule.
In light of this background, the T2 cells were washed in serum free IMDM medium, and then 1.0×10^6 cells were suspended in 400 ul of the serum free IMDM medium, together with 100 ul synthetic peptide (final concentration: 0.1 mM, 1% DMSO). The mixture was incubated, overnight, at 37° C. Following incubation, the cells were washed and stained, successively, with HLA-A2 specific monoclonal antibody BB7.2, and FITC labelled, binding fragments of polyclonal goat anti-mouse IgG. Fluorescence ratio was calculated by the following formula: [formula]
This yielded the “mean fluorescence ratio” or MFR. In accordance with Nijman et al, supra, an MFR greater than 1.5 indicates binding to HLA-A2.

[3] = overnight 37° C., BB7.2 staining, MFR greater than 1.5 indicates binding to HLA-A2

Sequence: KIWEELSVL [Peptide M3-220.228]
% 51CR Release ([1]; effector CTL 4.2, E/T ratio 0.5): 57%
% 51CR Release ([1]; effector CTL 4.2, E/T ratio 1.9): 84%
% 51CR Release ([1]; effector CTL 4.2, E/T ratio 7.5): 88%
% 51CR Release ([1]; effector CTL 4.2, E/T ratio 30): 91%
lysis of peptide-pulsed target cells by cytolytic T cell clone 4.2 ([1]; target cells (T2, SK23) pulsed with peptide, no lysis in the absence of the peptide): specifically lysed

Sequence: ALSRKVAEL [Peptide M3-108.116, MAGE-3 derived peptide]
MFR (mean fluorescence ratio) ([2]; in some of the experimental runs): < 1.5)
MFR (mean fluorescence ratio) [2, 3]: 2.17 (and, less than

Sequence: TLVEVTLGEV [Peptide M3-44.53]
MFR (mean fluorescence ratio) [2, 3]: 3.5

Continued, values first:

MFR (mean fluorescence ratio) [2, 3]: 2.37
Sequence: IMPKAGLLI [Peptide M3-195.203]

MFR (mean fluorescence ratio) [2, 3]: 1.8 (and, less than
Sequence: ALVETSYVKV [Peptide M3-277.286, MAGE-3 derived peptide]
